Test results published in article PMC11087982, “In vitro and in vivo activities of a trithiolato-diRuthenium complex conjugated with sulfadoxine against the apicomplexan parasite Toxoplasma gondii” (International Journal for Parasitology: Drugs and Drug …, 2024).
Entries after “also recorded” stand apart in the source; their conditions may differ. Where two headings read alike, the source gives them in different places.

Tests used:
[1] = tested on: T. gondii Me49 tachyzoites; test: Long-term treatment of infected HFF to test static or cidal effect; type: cell-based, Toxoplasma gondii; conditions: 0.5 μM
Procedure: On day 0, the HFF monolayers were infected with 5 × 10^5 T. gondii Me49 tachyzoites. At 4 h post infection (p.i.) the medium was removed, flasks were washed twice with sterile PBS and fresh medium containing either RU-SDX at 0.25 μM or 0.5 μM, or DMSO (0.05%) as a negative control, were added. Treatments were applied during 3 and 6 days and cultures were maintained in normal DMEM complete media and examined light microscopically daily. After drug removal, flasks were also monitored microscopically daily for one week.

[2] = tested on: zebrafish (Danio rerio) embryo; test: Zebrafish embryo acute toxicity test; type: in vivo; conditions: for Malformations (No. embryos with malformations / fertilized embryos) / Mortality (No. of dead embryos / fertilized embryos) / Unaffected embryos (No. / fertilized embryos): 96 h
Procedure: The zebrafish (Danio rerio) embryo acute toxicity test was carried out to assess the impact of RU-SDX on early embryo development as previously described ([Anghel et al., 2020]). RU-SDX was assessed at 0.2, 2 and 20 μM, while the bumped kinase inhibitor BKI-1748 (applied at 50 μM) was used as a positive control resulting in 100% mortality of zebrafish embryos ([Anghel et al., 2020]). For each test- and control condition, a 24 well plate containing 24 fertilized eggs (1 egg/well) was used. Negative control plates contained 1 ml of E3 medium/osmosis water, whereas eggs in solvent control plates were incubated in E3 medium containing 0.01% DMSO ([Anghel et al., 2020]). For each treatment, a survival rate was calculated that reflected the degree of either embryo death or malformations during the first 96 h of development in relation to eggs maintained without compound.

[3] = tested on: Non-infected HFF; test: TMRE uptake assay (mitochondrial membrane potential), non-infected HFF; type: cell-based, human; conditions: 0.5 μM, 3.5 h
Procedure: (§1) 5 × 10^5 HFF were seeded into T25 culture flasks in DMEM complete medium and maintained in culture for 72 h to reach ⁓80% confluency. HFF monolayers were left either non-infected or were infected with 2 × 10^5 T. gondii Me49 tachyzoites. After another 48 h, the medium was removed from infected and non-infected T25 flasks and was replaced either by medium containing 0.5 μM RU-SDX, or in the case of non-treated controls, medium containing 0.05% DMSO. As positive controls, the two mitochondrial uncouplers FCCP and CCCP were applied at a concentration of 80 and 50 μM, respectively. PYR was applied at 0.5 μM as a control drug not affecting the MMP, and RU-adenine, used as a conjugate shown earlier to impact on the mitochondrial ultrastructure in T. gondii ([Anghel et al., 2021]; [Desiatkina et al., 2022b]), was also tested at 0.5 μM ([Anghel et al., 2021]; [Desiatkina et al., 2022b]). […] Fluorescence was measured using a Hidex Sense microplate reader instrument ([…]) with the excitation wavelength 544/20 nm and emitted light collected at 590/20 nm. Value from wells belonging to the same experimental condition were summed and the mean TMRE uptake in each condition was calculated from three biological replicates.

[4] = tested on: T. gondii-infected HFF; test: TMRE uptake assay (mitochondrial membrane potential), T. gondii-infected HFF; type: cell-based, Toxoplasma gondii Me49 in human HFF; conditions: 0.5 μM, 3.5 h
Procedure: as §1

[5] = tested on: T. gondii β-gal tachyzoites; conditions: cited from earlier work

## CC(C)(C)c1ccc(C[S-])cc1.CC(C)(C)c1ccc(C[S-])cc1.COc1ncnc(NS(=O)(=O)c2ccc(NC(=O)Cc3ccc([S-])cc3)cc2)c1OC.Cc1ccc(C(C)C)cc1.Cc1ccc(C(C)C)cc1.[Cl-].[Ru+2].[Ru+2] [RU-SDX]
[1]; 3 and 6 days treatment
  parasiticidal or parasitostatic action in vitro: parasitostatic but not parasiticidal; also recorded: did not act parasiticidal
[1]; 6 days of continuous treatment, then culture without compound
  tachyzoite re-emergence after removal of the drug: ≤ 4 days
[2]; 0.2 μM
  survival score (surviving embryos without malformations): 95%
  Malformations (No. embryos with malformations / fertilized embryos): 0/20
  Mortality (No. of dead embryos / fertilized embryos): 1/20
  Unaffected embryos (No. / fertilized embryos): 19/20
[2]; 2 μM
  survival score (surviving embryos without malformations): 90%
  Malformations (No. embryos with malformations / fertilized embryos): 1/20
  Mortality (No. of dead embryos / fertilized embryos): 1/20
  Unaffected embryos (No. / fertilized embryos): 18/20
[2]; 20 μM
  survival score (surviving embryos without malformations): no surviving embryos
  Malformations (No. embryos with malformations / fertilized embryos): 0/20
  Mortality (No. of dead embryos / fertilized embryos): 20/20
  Unaffected embryos (No. / fertilized embryos): 0/20
[2]; 20 μM, h of embryogenesis
  time of peak of mortality of zebrafish embryos: 72 h
[3]
  TMRE fluorescence intensity / TMRE uptake (percentage of non-treated control = 100%): 140%
[4]
  TMRE fluorescence intensity / TMRE uptake (percentage of non-treated control = 100%): 130%
[5]; 1 μM, ref Desiatkina et al., 2021
  proliferation (% of control ± SD): ^b^, ^∗∗∗11 ± 1%
[5]; 1.1 μM, ref Desiatkina et al., 2021
  proliferation (% of control ± SD): ^b^,*116 ± 1%
[5]; 1.25 μM, ref Desiatkina et al., 2021, Păunescu et al.
  proliferation (% of control ± SD): ^b^, ^a0 ± 0%
